Data reported in patent publication US11021479B2, “Pyridoquinazoline derivatives useful as protein kinase inhibitors” (ONCOSTELLAE, S.L., priority 2017, dated 2021).
pIC50: −log10 of the molar value.

How the values were obtained:
Format in all cases: biochemical
JAK2 = biological target: T1, JAK2 (Homo sapiens, UniProt O60674); assay: Functional assay of protein Janus kinases (Caliper mobility shift), JAK2; details: ATP 300 μM, incubation 30 min; read-out: JAK2 enzymatic activity (IC50) score
T1 construct: purchased Carna Biosciences 08-045
T1 sequence (O60674 826-1132 limits assumed): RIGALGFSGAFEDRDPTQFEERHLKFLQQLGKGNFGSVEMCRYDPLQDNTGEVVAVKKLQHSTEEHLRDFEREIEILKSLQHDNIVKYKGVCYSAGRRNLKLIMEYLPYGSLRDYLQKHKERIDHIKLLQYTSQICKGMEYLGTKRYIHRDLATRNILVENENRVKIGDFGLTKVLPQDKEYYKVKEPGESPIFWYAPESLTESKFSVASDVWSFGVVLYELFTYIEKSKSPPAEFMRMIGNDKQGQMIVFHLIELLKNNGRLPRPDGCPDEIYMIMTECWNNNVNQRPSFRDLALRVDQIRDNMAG
Description: (§1) The functional assays of protein Janus kinases were carried out in 384-well plates using a final volume of 30 μl. […] The reaction was reads in a “Caliper EzReader LabChip 3000” (Caliper, Hopkinton, Mass.) reader, based on electrophoretic mobility of the fluorescent substrate and the phosphorylated product.
(§2) The inhibition percentages were calculated by comparison between control reactions, for 100% of inhibition and reactions with only DMSO for 0% of inhibition.

TYK2 = biological target: T2, TYK2 (Homo sapiens, UniProt P29597); assay: Functional assay of protein Janus kinases (Caliper mobility shift), TYK2; details: ATP 20 μM, incubation 45 min; read-out: TYK2 enzymatic activity (IC50) score
T2 construct: purchased Carna Biosciences 08-147
T2 sequence (P29597 871-1187 limits assumed): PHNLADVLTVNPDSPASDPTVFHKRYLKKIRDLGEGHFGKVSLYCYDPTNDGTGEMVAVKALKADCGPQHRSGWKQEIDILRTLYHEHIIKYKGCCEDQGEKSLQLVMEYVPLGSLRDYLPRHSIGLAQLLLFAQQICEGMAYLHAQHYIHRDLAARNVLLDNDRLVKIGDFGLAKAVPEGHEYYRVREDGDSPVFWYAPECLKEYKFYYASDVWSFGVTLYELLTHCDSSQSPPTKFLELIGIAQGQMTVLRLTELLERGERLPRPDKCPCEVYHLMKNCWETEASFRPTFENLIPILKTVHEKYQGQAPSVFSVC
Description: as §1, §2

JAK3 = biological target: T3, JAK3 (Homo sapiens, UniProt P52333); assay: Functional assay of protein Janus kinases (Caliper mobility shift), JAK3; details: ATP 8 μM, incubation 30 min; read-out: JAK3 enzymatic activity (IC50) score
T3 construct: purchased Carna Biosciences 08-046
T3 sequence (P52333 795-1124 limits assumed): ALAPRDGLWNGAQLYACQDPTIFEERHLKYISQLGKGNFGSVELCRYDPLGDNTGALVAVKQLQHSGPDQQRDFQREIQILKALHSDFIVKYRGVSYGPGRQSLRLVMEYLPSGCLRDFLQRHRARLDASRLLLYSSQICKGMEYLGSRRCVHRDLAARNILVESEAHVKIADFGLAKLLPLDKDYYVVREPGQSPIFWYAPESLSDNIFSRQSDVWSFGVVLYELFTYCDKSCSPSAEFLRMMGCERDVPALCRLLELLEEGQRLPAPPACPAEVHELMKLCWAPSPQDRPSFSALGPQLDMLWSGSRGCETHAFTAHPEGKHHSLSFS
Description: as §1, §2

Human ARK5/NUAK1 = biological target: T4, Human ARK5/NUAK1 (Homo sapiens, UniProt O60285); assay: ARK5 activity inhibition test (Reaction Biology kit, 33P-ATP filter assay); details: ATP 10 μM, peptide substrate 20 μM, 120 min; read-out: ARK5 enzymatic activity (IC50) score
T4 construct: purchased Reaction Biology ARK5/NUAK1
T4 sequence (O60285 1-661): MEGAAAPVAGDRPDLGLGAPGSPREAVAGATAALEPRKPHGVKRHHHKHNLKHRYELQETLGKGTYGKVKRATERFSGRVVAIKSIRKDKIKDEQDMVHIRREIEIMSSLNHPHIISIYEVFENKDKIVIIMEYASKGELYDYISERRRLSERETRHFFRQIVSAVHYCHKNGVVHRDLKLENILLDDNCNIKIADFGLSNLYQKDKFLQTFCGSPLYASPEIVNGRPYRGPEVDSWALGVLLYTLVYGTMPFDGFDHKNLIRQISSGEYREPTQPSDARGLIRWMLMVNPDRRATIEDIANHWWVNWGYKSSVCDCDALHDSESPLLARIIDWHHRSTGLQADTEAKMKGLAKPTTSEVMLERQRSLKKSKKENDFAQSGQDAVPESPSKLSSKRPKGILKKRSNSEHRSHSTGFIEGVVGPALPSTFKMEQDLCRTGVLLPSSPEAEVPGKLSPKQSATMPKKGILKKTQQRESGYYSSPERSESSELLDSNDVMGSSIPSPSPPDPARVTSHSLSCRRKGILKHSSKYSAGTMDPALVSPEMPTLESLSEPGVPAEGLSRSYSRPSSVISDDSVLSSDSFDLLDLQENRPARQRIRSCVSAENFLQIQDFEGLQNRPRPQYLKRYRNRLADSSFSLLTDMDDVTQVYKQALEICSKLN
Description: Activity test was carried out using the kit from Reaction Biology (CAT #: ARK5/NUAK1). The test uses enzyme Human ARK5/NUAK1 and the substrate is the peptide […] (SEQ ID NO: 1), 20 μM and ATP 10 μM. Other reagents are the following: Base Reaction buffer; 20 mM Hepes (pH 7.5), 10 mM MgCl2, 1 mM EGTA, 0.02% Brij35, 0.02 mg/ml BSA, 0.1 mM Na3VO4, 2 mM DTT, 1% DMSO.
The reaction was carried out following the instructions of manufacturer. Briefly, kinase/substrate pairs were prepared in reaction buffer. Compounds were delivered into the reaction, followed 20 minutes later by addition of a mixture of ATP (Sigma, St. Louis Mo.) and ^33P ATP (Perkin Elmer, Waltham Mass.) to a final concentration of 10 μM. Reactions were carried out at room temperature for 120 min, followed by spotting of the reactions onto P81 ion exchange filter paper (Whatman Inc., Piscataway, N.J.). Unbound phosphate was removed by extensive washing of filters in 0.75% phosphoric acid. […] IC50 values and curve fits were obtained using Prism (GraphPad Software).

JAK1 = biological target: T5, JAK1 (Homo sapiens, UniProt P23458); assay: Functional assay of protein Janus kinases (Caliper mobility shift), JAK1; details: ATP 100 μM, incubation 150 min; read-out: JAK1 enzymatic activity (IC50) score
T5 construct: purchased Carna Biosciences 08-144
T5 sequence (P23458 850-1154 limits assumed): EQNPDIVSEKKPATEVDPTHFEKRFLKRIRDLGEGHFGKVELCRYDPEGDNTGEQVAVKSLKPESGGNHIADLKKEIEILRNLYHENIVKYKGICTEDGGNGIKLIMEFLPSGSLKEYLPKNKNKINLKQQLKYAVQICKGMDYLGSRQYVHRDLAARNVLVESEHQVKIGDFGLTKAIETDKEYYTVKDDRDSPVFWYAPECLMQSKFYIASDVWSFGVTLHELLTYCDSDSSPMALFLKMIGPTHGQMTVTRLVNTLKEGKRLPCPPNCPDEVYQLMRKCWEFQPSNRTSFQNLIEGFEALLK
Description: as §1, §2

Row | Compound | pIC50 (JAK2) | pIC50 (TYK2) | pIC50 (JAK3) | pIC50 (Human ARK5/NUAK1) | pIC50 (JAK1)
1 | O=C(NC1CCCCC1)c1cccn2c(=O)c3cc(C4CC4)ccc3nc12 [Example 1, N-cyclohexyl-2-cyclopropyl-11-oxo-11H-pyrido[2,1-b]quinazoline-6-carboxamide] | < 6.00 | > 7.00 | > 7.00 | > 7.00 | < 6.00
2 | O=C(NC1CCCC1)c1cccn2c(=O)c3cc(C4CC4)ccc3nc12 [Example 2, N-cyclopentyl-2-cyclopropyl-11-oxo-11H-pyrido[2,1-b]quinazoline-6-carboxamide] | < 6.00 | > 7.00 | > 7.00 | > 7.00 | < 6.00
3 | COc1ccc2nc3c(C(=O)NC4CCCCC4)cccn3c(=O)c2c1 [Example 20, N-cyclohexyl-2-methoxy-11-oxo-11H-pyrido[2,1-b]quinazoline-6-carboxamide] | – | > 7.00 | > 7.00 | > 7.00 | –
4 | O=C(NC1CCCCC1)c1cccn2c(=O)c3cc(-c4ccc(F)cc4)ccc3nc12 [Example 29, N-cyclohexyl-2-(4-fluorophenyl)-11-oxo-11H-pyrido[2,1-b]quinazoline-6-carboxamide] | < 6.00 | < 6.00 | 6.00 to 7.00 | > 7.00 | < 6.00
5 | O=C(NC1CCCCC1)c1cccn2c(=O)c3cc(-c4ccncc4)ccc3nc12 [Example 33, N-cyclohexyl-11-oxo-2-(pyridin-4-yl)-11H-pyrido[2,1-b]quinazoline-6-carboxamide] | < 6.00 | > 7.00 | > 7.00 | > 7.00 | < 6.00
6 | CN1CCN(c2ccc3nc4c(C(=O)NC5CCCCC5)cccn4c(=O)c3c2)CC1 [Example 36, N-cyclohexyl-2-(4-methylpiperazin-1-yl)-11-oxo-11H-pyrido[2,1-b]quinazoline-6-carboxamide] | < 6.00 | > 7.00 | > 7.00 | > 7.00 | < 6.00
7 | O=C(NC1CCCCC1)c1cccn2c(=O)c3cc(N4CCOCC4)ccc3nc12 [Example 38, N-cyclohexyl-2-morpholino-11-oxo-11H-pyrido[2,1-b]quinazoline-6-carboxamide] | < 6.00 | > 7.00 | > 7.00 | > 7.00 | < 6.00
